# Test results: patent US6692928B1, “Methods for identifying cardiovascular agents” (New England Medical Center Hospitals, Inc., priority 1996, dated 2004)
# Read-outs that look alike come from different tables or passages of the source.
# Tests used:
# [1] = tested on: eNOS; assay: eNOS activity in ovine pulmonary aortic endothelial cells (PAEC); format: cell-based; conditions: for basal eNOS activity: no E2
# From the text: (§1) Several molecular and pharmacologic interventions can disrupt this rapid ERα-eNOS signaling pathway.
# [2] = tested on: MAP kinase; assay: MAP kinase activity in PAEC; format: cell-based, ovine; conditions: 5 minute exposure, 10^−8M E2
# From the text: as §1
# [3] = tested on: vascular injury; assay: Mouse carotid injury model, L-NAME and eNOS knockout studies; format: in vivo, mice
# From the text: Two endpoints were routinely analyzed. First, computerized morphometrics were collected to examine the extent of vascular injury by quantitating medial area measurements. Second, BrdU labeling of VSMC and endothelial cells that proliferated following the injury was quantitated, which required extensive immunohistochemical staining for (i) BrdU, (ii) smooth muscle α-actin, and (iii) Factor VIII-related antigen (endothelial cells).
# The studies may also be carried out in wild type mice and mice lacking ERα, ERβ, eNOS, iNOS, or nNOS, or in mice lacking a combination of these proteins. The level of NOS isoforms may be examined using isoform-specific antibodies.
# [4] = tested on: pERE-Luc reporter; assay: pERE-Luc reporter in GH3B6 cells; format: cell-based, rat; conditions: same conditions (estrogen 10^−6M, 48 hours)
# [5] = tested on: VEGF expression; assay: pmVEGF-Luc reporter in WB572 cells; format: cell-based, human; conditions: estrogen 10^−6M, 48 hours
# From the text: (§2) One useful reporter construct is pmVEGF-Luc. In this reporter construct, a 1.6 kB fragment of genomic DNA located upstream of the murine vascular endothelial cell growth factor (VEGF) gene has been inserted into the pGL2-Basic luciferase reporter plasmid (Promega; Madison, Wis.). The 1.6 kB fragment includes the transcription start site, 1.2 kB of sequence upstream of the start site, and 0.4 kB of sequence downstream of the start site. Useful variants of this reporter plasmid can be made by deleting a portion of the murine VEGF control region. For example, pVEGF-Luc-Apa/Kpn is identical to pVEGF-luc except that 455 bp at the 5′ end of the 1.6 kB fragment have been removed; pVEGF-Luc-Mlu is identical to pVEGF-luc except that 768 bp at the 5′ end of the 1.6 kB fragment have been removed; and pVEGF-Luc-Sma is identical to pVEGF-luc except that 455 bp at the 5′ end of the 1.6 kB fragment have been removed. Similar reporter constructs can be created using upstream regulatory sequences from the human VEGF gene. For example, phVEGF-Luc is a reporter construct in which 5.1 kb genomic DNA upstream of the human VEGF coding sequence inserted into the pGL2-Basic luciferase reporter plasmid. This particular construct includes 3.4 kb of sequence upstream of the VEGF transcription start site and 1.7 kb untranslated sequence downstream of the transcription start site.
# [6] = tested on: VEGF gene; assay: VEGF-luciferase reporter, transiently transfected HSVSMC; format: cell-based, human; conditions: VEGF-luciferase + estrogen receptor α construct, 1 μM estrogen, n=12
# From the text: (§3) To study the role of estrogen on expression of the VEGF gene in vascular smooth muscle cells, human saphenous vein smooth muscle cells (HSVSMC) and HeLa cells were transiently transfected with a VEGF-luciferase reporter construct. In this reporter construct, expression of luciferase is under the control of a 1.2 kB fragment of the murine VEGF gene regulatory region. The cells were also transfected with an estrogen receptor α expression construct. All of the results described below have been normalized for transfection efficiency.
# [7] = tested on: PAEC; assay: Protein tyrosine phosphorylation in PAEC; format: cell-based
# Description: An immortalized PAEC line retains the ER-eNOS activation pathway completely and provides a useful reagent for identifying other members of the pathway. Experiments indicate that a number of proteins are rapidly tyrosine phosphorylated following exposure of PAEC to estrogen. This occurs within 5-10 minutes and includes a series of low molecular weight proteins (15-40 Kd), as well as several larger proteins.
# [8] = tested on: VEGF gene; assay: VEGF-luciferase reporter, transiently transfected HeLa cells; format: cell-based
# From the text: as §3
# [9] = estrogen replacement therapy, by as much as; cited from earlier work
# [10] = tested on: VEGF expression; assay: pmVEGF-Luc reporter in GH3B6 cells; format: cell-based, rat; conditions: estrogen 10^−6M, 48 hours
# From the text: as §2
# [11] = tested on: VEGF expression; assay: VEGF expression in rat VSMC (A7r5 cells); format: cell-based
# [12] = tested on: eNOS protein; assay: eNOS protein level by immunoblotting; format: cell-based, rat; conditions: n=3
# From the text: (§4) ER-regulation of two cardiac target genes, iNOS and eNOS, were studied in transient transfection experiments using either an iNOS-luciferase reporter plasmid (containing 1.1 Kb of the 5′-flanking region of the human iNOS gene driving expression of the luciferase cDNA) or an eNOS luciferase reporter plasmid (containing 1.6 Kb of the 5′ flanking region of the human eNOS gene driving expression of the luciferase cDNA). […] In these experiments, E2 increased the abundance of iNOS protein (50+/−23-fold; n=3; p<0.05) as well as eNOS protein (15.7+/−4.3 fold; n=3; p<0.05).
# [13] = tested on: endothelium-denuded aortic rings; assay: Mouse aortic vascular ring bioassay, phenylephrine-induced constriction; conditions: male mice
# From the text: An eight-chamber vascular ring bioassay system may be used to study vasomotion in vascular rings from mice. Vascular contraction and relaxation may be examined in endothelial-intact and endothelial-denuded mouse aortic vascular rings. […] The mouse aortic ring experiments may be carried out in rings from wild type, ERαKO and ERβKO animals.
# [14] = tested on: human iNOS gene; assay: iNOS-luciferase reporter in rat cardiomyocytes; format: cell-based; conditions: 1 nM E2, 48 hours
# From the text: as §4
# [15] = tested on: vascular injury response; conditions: 14 days after carotid injury, physiologic levels
# From the text: Vascular medial are increases and smooth muscle cell proliferation were quantitated 14 days following cartoid injury in ovariectomized female mice treated with vehicle or physiologic levels of 17-β estradiol.
# [16] = tested on: iNOS protein; assay: iNOS protein level by immunoblotting; format: cell-based, rat; conditions: n=3
# From the text: as §4
# [17] = tested on: eNOS; assay: eNOS activity in transfected COS 7 cells; format: cell-based
# From the text: In contrast, ERα and eNOS coexpression had no effect on basal (unstimulated) eNOS activity (102+/−33% of activity in sham-transfected cells (ERα(−)).
# [18] = tested on: human eNOS gene; assay: eNOS luciferase reporter in rat cardiomyocytes; format: cell-based; conditions: 1 nM E2, 48 hours
# From the text: as §4
# [19] = biological target: T1, estrogen receptor (Homo sapiens, UniProt P03372); assay: ERE-Luc reporter activation of the estrogen receptor in transfected cells; format: cell-based
# T1 construct: expressed in transfected cells; host or cells: PVEC, HSVSMC, human aortic VSMC, HeLa (transient transfection)
# T1 sequence (P03372 1-595): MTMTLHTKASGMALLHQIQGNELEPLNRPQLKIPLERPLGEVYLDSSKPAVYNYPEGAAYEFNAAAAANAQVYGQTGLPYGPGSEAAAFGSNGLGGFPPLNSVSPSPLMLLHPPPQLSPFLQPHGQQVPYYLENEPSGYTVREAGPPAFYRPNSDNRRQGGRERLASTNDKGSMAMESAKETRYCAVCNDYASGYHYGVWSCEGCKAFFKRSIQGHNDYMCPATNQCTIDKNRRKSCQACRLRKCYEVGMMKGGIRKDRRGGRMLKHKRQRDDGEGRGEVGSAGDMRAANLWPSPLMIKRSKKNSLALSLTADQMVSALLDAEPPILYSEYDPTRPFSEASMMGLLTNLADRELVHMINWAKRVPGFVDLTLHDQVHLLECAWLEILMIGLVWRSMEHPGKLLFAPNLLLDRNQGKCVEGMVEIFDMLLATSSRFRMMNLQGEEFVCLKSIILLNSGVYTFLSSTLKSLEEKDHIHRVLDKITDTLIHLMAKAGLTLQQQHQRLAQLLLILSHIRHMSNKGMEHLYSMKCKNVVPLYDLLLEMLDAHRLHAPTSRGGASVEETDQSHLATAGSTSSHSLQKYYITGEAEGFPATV
# Description: The cells were then cultured for 48 hours in serum-free medium in the absence or presence of EGF (100 ng/ml).
molecule,measurement,setting,value
CC/C(=C(\c1ccccc1)c1ccc(OCCN(C)C)cc1)c1ccccc1 [tamoxifen],inhibition of acute eNOS response to E2,[1]; PAEC,fully inhibited
same,basal eNOS activity,[1]; PAEC,caused no change
same,inhibition of E2-induced increase in MAP kinase activity,[2],completely inhibited
O=c1c(-c2ccc(O)cc2)coc2cc(O)cc(O)c12 [genistein],inhibition of acute eNOS response to E2,[1]; PAEC,completely inhibit
same,basal eNOS activity,[1]; PAEC,do not alter basal eNOS activity
COc1cccc(-c2cc(=O)c3ccccc3o2)c1N [PD98059],inhibition of acute eNOS response to E2,[1]; PAEC,completely inhibit
estrogen,protection against injury (medial area endpoint),"[3]; eNOS KO mice, ovariectomized female",still able to protect against injury
same,activation of pERE-Luc reporter,[4],8 fold
same,increase in luciferase activity,[5],1.8 fold
same,increase of luciferase expression,[6],1.7±0.2 fold
same,time of protein tyrosine phosphorylation after exposure,[7],5 to 10 min
same,increase of luciferase expression,"[8]; HeLa cells co-transfected with estrogen receptor α expression plasmid, n=21",4.2±0.8 fold
same,effect on luciferase expression,"[8]; HeLa cells without estrogen receptor α, estrogen containing media",no effect
same,reduction of the incidence of coronary artery disease,[9],30-50%
same,effect on luciferase activity,[10],no effect
same,activation of VEGF expression,[11],did not activate VEGF expression
"C[C@]12CC[C@@H]3c4ccc(O)cc4CC[C@H]3[C@@H]1CC[C@@H]2O [E2, 17β-estradiol]",eNOS activity,"[1]; PAEC, E2 10^−8M",stimulates eNOS activity
same,time to maximal eNOS stimulation,"[1]; PAEC, E2 10^−8M",≤ 5 min
same,increase in abundance of eNOS protein,[12],15.7+/−4.3 fold
same,phenylephrine-induced constriction,[13]; chronic (18h) treatment,inhibited contraction
same,increase of iNOS reporter activity,[14]; n=9,8.1+/−0.02 fold
same,"vascular injury measures (medial area increase, smooth muscle cell proliferation)",[15]; estrogen receptor α knockout ovariectomized female mice,markedly inhibited all measures of vascular injury
same,"vascular injury measures (medial area increase, smooth muscle cell proliferation)",[15]; wild-type ovariectomized female mice,markedly inhibited all measures of vascular injury
same,increase in abundance of iNOS protein,[16],50+/−23 fold
same,eNOS activity,[17]; COS 7 cells transfected with eNOS alone,had no effect
same,increase in eNOS activity,"[17]; COS 7 cells transfected with eNOS and ERα, acute stimulation",> 3 fold
same,increase of eNOS reporter activity,[18]; n=9,6.9+/−0.06 fold
same,MAP kinase activity,[2],causes an increase in MAP kinase activity
herbamycin A,inhibition of acute eNOS response to E2,[1]; PAEC,completely inhibit
same,basal eNOS activity,[1]; PAEC,do not alter basal eNOS activity
C[C@]12CC[C@@H]3c4ccc(O)cc4CC[C@H]3[C@@H]1CC[C@H]2O [17α-estradiol],eNOS activity,"[1]; PAEC, 10^−12 to 10^−6M",had no effect
COC(=O)[C@@H](N)CCCNC(=N)N[N+](=O)[O-] [L-NAME],effect on estrogen protection against vascular injury (medial area),"[3]; co-administration with estrogen, ovariectomized female mice",negated
same,effect on the 17β estradiol inhibition of contraction,[13],reversed the inhibition
EGF: epidermal growth factor,effect on luciferase activity,"[19]; HeLa cells, EGF 100 ng/ml, 48 hours, serum-free",no effect
same,increase in luciferase activity,"[19]; PVEC, HSVSMC and human aortic VSMC, EGF 100 ng/ml, 48 hours, serum-free",~3 fold
"C[C@]12CC[C@@H]3c4ccc(O)cc4C[C@@H](CCCCCCCCC[S+]([O-])CCCC(F)(F)C(F)(F)F)[C@H]3[C@@H]1CC[C@@H]2O (stereo partly drawn) [ICI 182,780]",inhibition of acute eNOS response to E2,[1]; PAEC,fully inhibited
same,inhibition of the enhanced eNOS response,[1]; PAEC overexpressing ER,inhibited completely
same,basal eNOS activity,[1]; PAEC,caused no change
same,inhibition of E2 activation of iNOS reporter,[14],completely inhibited
same,inhibition of E2 activation of eNOS reporter,[18],blocked fully
same,inhibition of E2-induced increase in MAP kinase activity,[2],completely inhibited
PDGF,estrogen receptor activation,"[19]; all cell types studied (PVEC, HSVSMC, human aortic VSMC, HeLa)",did not activate the estrogen receptor
